Data from patent publication US20240425473A2 (priority 2021, published 2024).
Like-named read-outs stand apart in the source and are kept apart here.

Assays:
SARS-CoV-2 [1] = format: cell-based
SARS-CoV-2 [2] = format: cell-based; remark: listed apart in the source
IFN-β promoter activity = format: cell-based, human; conditions: for effect on IFN induction, compared with AE-1-10: 293T cells with SeV infection; for IFN induction: Sendai virus
CTPS1 [3] = target: T1, CTPS1 (Homo sapiens, UniProt P17812); format: binding; design: Flag; expressed in transfected cells; host or cells: 293T cells expressing Flag-CTPS1; conditions: 293T cells expressing Flag-CTPS1
T1 sequence (P17812 1-591): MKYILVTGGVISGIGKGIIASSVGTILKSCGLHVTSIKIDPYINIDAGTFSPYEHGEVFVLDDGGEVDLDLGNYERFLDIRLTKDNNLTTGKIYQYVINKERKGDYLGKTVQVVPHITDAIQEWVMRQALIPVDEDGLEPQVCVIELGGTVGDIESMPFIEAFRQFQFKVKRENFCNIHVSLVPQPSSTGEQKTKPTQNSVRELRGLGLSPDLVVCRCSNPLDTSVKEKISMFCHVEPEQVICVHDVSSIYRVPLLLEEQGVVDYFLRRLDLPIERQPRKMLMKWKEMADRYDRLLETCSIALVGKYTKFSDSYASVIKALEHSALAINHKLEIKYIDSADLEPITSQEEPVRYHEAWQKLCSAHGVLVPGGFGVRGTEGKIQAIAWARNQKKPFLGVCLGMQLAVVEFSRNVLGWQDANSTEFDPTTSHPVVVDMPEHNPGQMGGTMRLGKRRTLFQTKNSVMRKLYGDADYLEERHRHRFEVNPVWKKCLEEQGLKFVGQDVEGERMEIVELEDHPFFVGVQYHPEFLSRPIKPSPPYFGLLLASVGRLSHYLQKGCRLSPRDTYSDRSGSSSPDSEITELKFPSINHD

CTPS1 [4] = target: T1, CTPS1; format: biochemical; design: made in house; conditions: with respect to UTP, 2 mM ATP, 2 mM L-glutamine, 0.1 mM GTP, Michaelis-Menten
SARS-CoV-2 [5] = test system: SARS-CoV-2; design: species or system mice; conditions: mouse, in vivo, ip, 35 mg/kg
CTPS1 [6] = target: T1, CTPS1; assay: Click-based cross-linking, affinity purification and mass spectrometry to identify cellular targets; format: binding; design: endogenous in cells; conditions: ranked lower than several other proteins; data not shown
IRF3 deamidation = IRF3 deamidation by two-dimensional gel electrophoresis and immunoblotting; format: cell-based, human; conditions: Caco-2 cells expressing ORF8 or A549 cells expressing Nsp8; 5 μM
IFNB1 expression = format: cell-based, human; conditions: 293T cells pre-treated 2 h, Sendai virus infection 9 h
NF-κB promoter activity = format: cell-based, human; conditions: 293T cells
CTP synthesis = format: cell-based, human
[7] = test system: antiviral genes IFNB1, ISG56, CCL5 and Mx1; format: cell-based, human

## CCc1ccccc1NC(=O)c1cccc(NC(=O)CCl)c1 [B8]
SARS-CoV-2 [1]
  reduction of viral RNA abundance relative to C9: significant improvement compared to C9
SARS-CoV-2 [2]
  effect on viral titer: better effect than C9

## COc1cccc(N(C)C(=O)c2cccc(NC(=O)CCl)c2)c1 [C2]
IFN-β promoter activity
  effect on IFN induction, compared with AE-1-10: no effect

## O=C(CCl)Nc1cccc(C(=O)NC2CCCCC2)c1 [C1]
IFN-β promoter activity
  effect on IFN induction, compared with AE-1-10: no effect

## C#CCOc1cccc(NC(=O)c2cccc([N+](=O)[O-])c2)c1 [BE-2-10]
CTPS1 [3]
  reaction (labeling) with CTPS1: reacted with CTPS1 in a dose-dependent manner

## COc1ccc(NC(=O)c2cccc(NC(=O)CCl)c2)cc1 [C4]
IFN-β promoter activity
  effect on IFN induction, compared with AE-1-10: improved effect to increase IFN induction

## O=C(CCl)Nc1csc(C(=O)Nc2ccccc2)c1 [C8]
IFN-β promoter activity
  effect on IFN induction, compared with AE-1-10: improved effect to increase IFN induction

## ORF8: SARS-CoV-2 polypeptide transiently expressed in the 293T cells from which CTPS1 was purified
CTPS1 [4]
  Kcat: 0.0212 ± 0.0137 s⁻¹
  Km: 55.2 ± 50.3 mM

## O=C(CCl)Nc1cccc(C(=O)Nc2ncc[nH]2)c1 [C6]
IFN-β promoter activity
  effect on IFN induction, compared with AE-1-10: modest effect

## ORF7b: SARS-CoV-2 polypeptide transiently expressed in the 293T cells from which CTPS1 was purified
CTPS1 [4]
  Kcat: 0.0147 ± 0.006 s⁻¹
  Km: 30.5 ± 21.5 mM

## CCCCCNC(=O)c1ccc(NC(=O)CCl)s1 [B1]
SARS-CoV-2 [1]
  reduction of viral RNA abundance compared to the vehicle (DMSO): ~5 order of magnitude
SARS-CoV-2 [2]
  effect on viral titer: reduced viral titer to the limit of detection

## O=C(Nc1ccccc1)c1ccc([N+](=O)[O-])s1 [C7]
IFN-β promoter activity
  effect on IFN induction, compared with AE-1-10: modest effect

## [N-]=[N+]=CC(=O)CC[C@H](N)C(=O)O [DON, 6-diazo-5-oxo-L-norleucine, reference compound]
IFN-β promoter activity; CTPS1 depleted and control 293T cells
  Sendai virus-induced IFN-β gene expression: elevated

## Cc1ccccc1NC(=O)c1cccc(NC(=O)CCl)c1 [B5]
SARS-CoV-2 [1]
  reduction of viral RNA abundance relative to C9: significant improvement compared to C9
SARS-CoV-2 [2]
  effect on viral titer: better effect than C9

## CCCCCNC(=O)c1cccc(NC(=O)CCl)c1 [C9]
IFN-β promoter activity
  effect on IFN induction, compared with AE-1-10: improved effect to increase IFN induction
SARS-CoV-2 [1]
  reduction of viral RNA abundance compared to the vehicle (DMSO): ~2 order of magnitude
SARS-CoV-2 [2]
  antiviral activity in SARS-CoV-2 infection, compared to AE-1-10: more robust antiviral activity
  reduction of SARS-CoV-2 titer: ~3 order of magnitude
SARS-CoV-2 [5]
  protection against SARS-CoV-2 infection: protect against infection

## O=C(CCl)Nc1cccc(C(=O)NC2CCCC2)c1 [B4]
SARS-CoV-2 [1]
  reduction of viral RNA abundance relative to C9: significant improvement compared to C9

## COc1ccccc1NC(=O)c1cc(NC(=O)CCl)cs1 [B2]
SARS-CoV-2 [1]
  reduction of viral RNA abundance compared to the vehicle (DMSO): ~5 order of magnitude
SARS-CoV-2 [2]
  effect on viral titer: reduced viral titer to the limit of detection

## COc1cccc(NC(=O)c2cc(NC(=O)CCl)cs2)c1 [B7]
SARS-CoV-2 [1]
  reduction of viral RNA abundance compared to the vehicle (DMSO): ~5 order of magnitude
SARS-CoV-2 [2]
  effect on viral titer: reduced viral titer to the limit of detection

## COc1ccccc1NC(=O)c1cccc(NC(=O)CCl)c1 [C5]
IFN-β promoter activity
  effect on IFN induction, compared with AE-1-10: improved effect to increase IFN induction
SARS-CoV-2 [2]
  antiviral activity in SARS-CoV-2 infection, compared to AE-1-10: more robust antiviral activity

## C#CCOc1cccc(Nc2ncnc3ccc(NC(=O)CCl)cc23)c1 [Q6ca]
CTPS1 [6]
  cellular target identification: identification of CTPS1 as a cellular target

## COc1cccc(NC(=O)c2cccc(NC(=O)CCl)c2)c1 [AE-1-10]
IRF3 deamidation
  inhibition of IRF3 deamidation: best efficacy to inhibit IRF3 deamidation
IFNB1 expression
  IFNB1 expression: increased IFNB1 expression in a dose-dependent manner
IFN-β promoter activity; CTPS1-depleted 293T cells
  IFN induction: failed to do so
IFN-β promoter activity; control 293T cells
  IFN induction: elevated IFN induction
NF-κB promoter activity
  NF-κB activation: no effect
CTP synthesis
  [15N]CTP and [15N]CDP: reduced [^15N]CTP and, much more so [^15N]CDP in a dose-dependent manner
  intracellular concentration of [15N]CTP and [15N]CDP: reduced the intracellular concentration of [^15N]CTP and [^15N]CDP
[7]
  antiviral gene expression: elevated antiviral gene expression
  expression of antiviral genes (IFNB1, ISG56, CCL5, Mx1): elevated
SARS-CoV-2 [1]
  viral RNA: reduced viral RNA
SARS-CoV-2 [2]
  viral yield: reduced viral RNA and yield
